22 compounds from patent publication US10626112B2, “Heterocyclic sulfonamide derivative and medicine comprising same” (EA PHARMA CO., LTD., priority 2014, dated 2020) can be followed below.

This test deals with human TRPA1 (Homo sapiens (Human), UniProt O75762). Briefly: Measurement of TRPA1 antagonist activity (1): intracellular calcium increase. In kind it is cell-based. The conditions noted are these: 293T cells transfected with human TRPA1 expression plasmid; allylisothiocyanate 20 μM stimulation; intracellular calcium fluorescence; read-out: hTRPA1 IC50. An excerpt:
Measurement of TRPA1 Antagonist Activity (1)
Human TRPA1 Expression Plasmid
As cDNA encoding human TRPA1 (GenBank accession No. […]), a commercially available product was purchased (manufactured by Kazusa DNA Research Institute, clone No.: pFN21AB7348, item No.: FHC07217). Using this as a template, full-length human TRPA1 gene was amplified using the primer sequences shown below, by reaction using DNA polymerase (manufactured by Stratagene, trade name: PfuUltra High-Fidelity DNA Polymerase).
A recognition site (underlined) of restriction enzyme HindIII was added to the 5′ side, and XbaI site (underlined) was added to the 3′ side, and GTT of the template sequence was changed to termination codon TAG (bold). The obtained double stranded DNA was enzyme-digested with HindIII and XbaI, and introduced into the multicloning site of expression plasmid pcDNA3.1/zeo(+) (manufactured by Invitrogen) to construct a human TRPA1 expression plasmid.
Human embryonic kidney-derived 293T cells were cultured in Dulbecco's Modified Eagle Medium containing 10% fetal bovine serum, 10 unit penicillin, and 10 μg streptomycin, plated on a petri dish having a diameter of 10 cm at 3×10^6 cells, and cultured for 24 hr in a CO2 incubator. A reduced serum medium (manufactured by Invitrogen, trade name: OPTI-MEM, 600 μL), a gene transfer reagent (manufactured by Mirus Bio, trade name: Mirus TransIT-293, 18 μL), and human TRPA1 expression plasmid (6 μg) were mixed, the total amount of the mixture was added to the cells on the petri dish to allow for gene transfer. The cells were recovered about for 8 hr later, plated on a poly-D-lysine coated 384 well black/clear bottom plate at 12,000 cells/well, and cultured overnight.
Measurement of Intracellular Calcium Increase
The 384 well plate was recovered, and the medium was removed. A calcium-bonded fluorescent indicator (manufactured by Molecular Device, trade name: Calcium4 Assay Kit, 38 μL) dissolved in assay buffer (1×HBSS, 20 mM HEPES, pH 7.2) was added, and the cells were stained in a CO2 incubator for 1 hr. The cells were taken out at room temperature, stood for not less than 15 min, a test substance (10 μL) was added by a platereader FDSS7000 (Hamamatsu Photonics K.K.) equipped with a 384ch dispenser. After 10 min, allylisothiocyanate (12 μL) was further added at a final concentration of 20 μM, and changes in the relative fluorescence intensity after addition of allylisothiocyanate were measured for 5 min.
Test Substance Preparation
The test substance was dissolved in dimethyl sulfoxide and serially diluted with an assay buffer containing 0.1% bovine serum albumin (1×HBSS, 20 mM HEPES, pH 7.2) to a 4.8-fold concentration of the evaluation concentration. Allylisothiocyanate, which is a known TRPA1 activator, was dissolved in dimethyl sulfoxide to 100 mM, and further diluted 5-fold (100 μM) of the final concentration, like the test substance.
Calculation of Antagonist Activity
Under the test substance-free conditions, the maximum variation range of the fluorescence intensity before and after allylisothiocyanate stimulation was defined to be 100% activity rate, and the variation range before and after buffer stimulation was defined as 0% activity rate. The activity rate on addition of the test substance was determined, and the numerical value obtained by subtracting the activity rate from 100 was defined to be an inhibitory rate. IC50, which is the concentration of the test substance necessary for reaching the 50% inhibitory rate, was calculated from the sigmoid approximate curve by a spreadsheet software Excel-Fit.

The structures appear in SMILES notation.

Sequence of human TRPA1 (O75762 whole entry): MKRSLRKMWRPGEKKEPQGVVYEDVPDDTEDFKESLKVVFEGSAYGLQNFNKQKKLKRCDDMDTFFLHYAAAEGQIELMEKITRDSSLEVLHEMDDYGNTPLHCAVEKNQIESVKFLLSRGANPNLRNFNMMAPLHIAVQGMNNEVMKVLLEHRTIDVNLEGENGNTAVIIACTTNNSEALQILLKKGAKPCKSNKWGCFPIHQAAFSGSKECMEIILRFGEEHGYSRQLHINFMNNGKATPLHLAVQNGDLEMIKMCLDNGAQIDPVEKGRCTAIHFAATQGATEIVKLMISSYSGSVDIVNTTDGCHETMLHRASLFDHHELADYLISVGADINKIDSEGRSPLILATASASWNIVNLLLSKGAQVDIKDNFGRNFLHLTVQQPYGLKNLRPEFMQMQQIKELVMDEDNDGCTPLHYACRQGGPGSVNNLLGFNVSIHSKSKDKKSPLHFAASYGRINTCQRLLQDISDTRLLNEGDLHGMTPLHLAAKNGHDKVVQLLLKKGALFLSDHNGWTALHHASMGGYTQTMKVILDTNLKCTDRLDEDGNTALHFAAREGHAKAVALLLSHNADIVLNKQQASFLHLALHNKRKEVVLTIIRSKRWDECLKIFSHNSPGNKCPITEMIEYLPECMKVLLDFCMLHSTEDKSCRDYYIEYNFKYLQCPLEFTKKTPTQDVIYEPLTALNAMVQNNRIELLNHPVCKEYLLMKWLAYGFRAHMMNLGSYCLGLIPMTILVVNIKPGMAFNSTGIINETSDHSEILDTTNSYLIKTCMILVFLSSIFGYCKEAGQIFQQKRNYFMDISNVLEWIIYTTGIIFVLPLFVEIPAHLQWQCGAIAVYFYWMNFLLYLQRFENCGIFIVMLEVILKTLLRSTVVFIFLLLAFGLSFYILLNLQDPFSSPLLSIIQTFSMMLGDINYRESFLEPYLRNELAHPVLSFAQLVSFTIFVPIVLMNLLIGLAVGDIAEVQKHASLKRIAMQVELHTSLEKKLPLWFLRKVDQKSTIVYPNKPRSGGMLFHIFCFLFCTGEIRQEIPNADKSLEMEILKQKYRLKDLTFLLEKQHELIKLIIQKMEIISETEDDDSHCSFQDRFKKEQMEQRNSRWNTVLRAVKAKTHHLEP

Take `CN1CCOc2cc(COc3cccc(CNC(=O)[C@@H]4CCCN4S(=O)(=O)c4cc5cc(F)ccc5o4)c3)cnc21` [Example 24, (2S)-1-(5-fluorobenzofuran-2-yl)sulfonyl-N-[[3-[(4-methyl-2,3-diphydropyrido[3,2-b][1,4]oxazin-7-yl)methoxy]-phenyl]methyl]pyrrolidine-2-carboxamide]: the IC50 is 410 nM.
With `O=C(NCc1cccc(OCc2cccc(C(F)(F)F)n2)c1)[C@@H]1CCCN1S(=O)(=O)c1cc2cc(F)ccc2o1` [Example 25, (2S)-1-(5-fluorobenzofuran-2-yl)sulfonyl-N-[[3-[[6-(trifluoromethyl)-2-pyridyl]methoxy]phenyl]-methyl]pyrrolidine-2-carboxamide] the figure was 11 nM.
As for `CN(C)c1cccc(COc2cccc(CNC(=O)[C@@H]3CCCN3S(=O)(=O)c3cc4cc(F)ccc4o3)c2)n1` [Example 26, (2S)-N-[[3-[[6-(dimethylamino)-2-pyridyl]methoxy]phenyl]-methyl]-1-(5-fluorobenzofuran-2-yl)sulfonyl-pyrrolidine-2-carboxamide], the figure is 23 nM; as for `O=C(NCc1cccc(OCc2cccc(CN3CCOCC3)c2)c1)[C@@H]1CCCN1S(=O)(=O)c1cc2cc(F)ccc2o1` [Example 27, (2S)-1-(5-fluorobenzofuran-2-yl)sulfonyl-N-[[3-[[3-(morpholinomethyl)phenyl]-methoxy]phenyl]methyl]-pyrrolidine-2-carboxamide], 8.2 nM.
With `O=C(NCc1cccc(OCc2cccc(OCCN3CCOCC3)c2)c1)[C@@H]1CCCN1S(=O)(=O)c1cc2cc(F)ccc2o1` [Example 28, (2S)-1-(5-fluorobenzofuran-2-yl)sulfonyl-N-[[3-[[3-(2-morpholinoethoxy)phenyl]-methoxy]phenyl]methyl]-pyrrolidine-2-carboxamide], the 50% inhibitory concentration (IC50) was 56 nM.
As for `COC(=O)C(Oc1cccc(CNC(=O)[C@@H]2CCCN2S(=O)(=O)c2cc3cc(F)ccc3o2)c1)c1ccccc1` (stereo partly drawn) [Example 29, methyl 2-[3-[[[(2S)-1-(5-fluorobenzofuran-2-yl)sulfonylpyrrolinidine-2-carbonyl]amino]methyl]-phenoxy]-2-phenylacetate], the figure is 340 nM.
With `O=C(NCc1cccc(OCC2CCOCC2)c1)[C@@H]1CCCN1S(=O)(=O)c1cc2cc(F)ccc2o1` [Example 30, (2S)-1-(5-fluorobenzofuran-2-yl)sulfonyl-N-[[3-(tetrahydropyran-4-ylmethoxy)phenyl]-methyl]pyrrolidine-2-carboxamide] the figure was 8.3 nM; with `O=C(NCc1cccc(OCC2CCCOC2)c1)[C@@H]1CCCN1S(=O)(=O)c1cc2cc(F)ccc2o1` (stereo partly drawn) [Example 31, (2S)-1-(5-fluorobenzofuran-2-yl)sulfonyl-N-[[3-(tetrahydropyran-3-ylmethoxy)phenyl]-methyl]pyrrolidine-2-carboxamide], 4.3 nM; with `O=C(NCc1cccc(OCC2CCOC2)c1)[C@@H]1CCCN1S(=O)(=O)c1cc2cc(F)ccc2o1` (stereo partly drawn) [Example 32, (2S)-1-(5-fluorobenzofuran-2-yl)sulfonyl-N-[[3-(tetrahydrofuran-3-ylmethoxy)phenyl]-methyl]pyrrolidine-2-carboxamide], 31 nM.
As for `O=C(NCc1cccc(OC2CCOCC2)c1)[C@@H]1CCCN1S(=O)(=O)c1cc2cc(F)ccc2o1` [Example 33, (2S)-1-(5-fluorobenzofuran-2-yl)sulfonyl-N-[(3-tetrahydropyran-4-yloxyphenyl)methyl]-pyrrolidine-2-carboxamide], the 50% inhibitory concentration (IC50) came out at 160 nM.
Regarding `O=C(NCc1cc(F)cc(OCc2ccccc2)c1)[C@@H]1CCCN1S(=O)(=O)c1cc2cc(F)ccc2o1` [Example 34, (2S)-N-[(3-benzyloxy-5-fluoro-phenyl)methyl]-1-(5-fluorobenzofuran-2-yl)sulfonyl-pyrrolidine-2-carboxamide], the half-maximal inhibitory concentration (IC50) came out at 1.6 nM.
As for `O=C(NCc1cc(F)cc(OCc2ccncc2)c1)[C@@H]1CCCN1S(=O)(=O)c1cc2cc(F)ccc2o1` [Example 35, (2S)-1-(5-fluorobenzofuran-2-yl)sulfonyl-N-[[3-fluoro-5-(4-pyridylmethoxy)-phenyl]methyl]-pyrrolidine-2-carboxamide], the figure is 8 nM; as for `N#Cc1ccc(COc2cc(F)cc(CNC(=O)[C@@H]3CCCN3S(=O)(=O)c3cc4cc(F)ccc4o3)c2)cc1` [Example 36, (2S)-N-[[3-[(4-cyanophenyl)methoxy]-5-fluoro-phenyl]methyl]-1-(5-fluorobenzofuran-2-yl)sulfonyl-pyrrolidine-2-carboxamide], 1.5 nM; as for `O=C(NCc1cccc(OCc2ccccc2)c1)[C@@H]1CCCN1S(=O)(=O)c1cc2ccccc2o1` [Example 37, (2S)-1-(benzofuran-2-ylsulfonyl)-N-[(3-benzyloxyphenyl)methyl]pyrrolidine-2-carboxamide], 14 nM.
With `O=C(NCc1cccc(OCc2ccc(C(F)(F)F)cc2)c1)[C@@H]1CCCN1S(=O)(=O)c1cc2ccccc2o1` [Example 38, (2S)-1-(benzofuran-2-ylsulfonyl)-N-[[3-[[4-(trifluoromethyl)phenyl]methoxy]-phenyl]methyl]pyrrolidine-2-carboxamide] the figure was 9.1 nM; with `O=C(NCc1cccc(OCc2ccc(C(F)(F)F)cc2)c1)[C@@H]1CCCN1S(=O)(=O)c1cc2cccc(F)c2o1` [Example 39, (2S)-1-(7-fluorobenzofuran-2-yl)sulfonyl-N-[[3-[[4-(trifluoromethyl)phenyl]methoxy]-phenyl]methyl]pyrrolidine-2-carboxamide], 190 nM.
With `O=C(NCc1cccc(OCc2ccc(C(F)(F)F)cc2)c1)[C@@H]1CCCN1S(=O)(=O)c1cc2ccc(F)cc2o1` [Example 40, (2S)-1-(6-fluorobenzofuran-2-yl)sulfonyl-N-[[3-[[4-(trifluoromethyl)phenyl]methoxy]-phenyl]methyl]pyrrolidine-2-carboxamide] the figure was 96 nM; with `O=C(NCc1cccc(OCc2ccc(C(F)(F)F)cc2)c1)[C@@H]1CCCN1S(=O)(=O)c1cc2c(F)cccc2o1` [Example 42, (2S)-1-(4-fluorobenzofuran-2-yl)sulfonyl-N-[[3-[[4-(trifluoromethyl)phenyl]methoxy]-phenyl]methyl]pyrrolidine-2-carboxamide], 7.1 nM; with `O=C(NCc1cccc(OCc2ccccc2)c1)[C@@H]1CCCN1S(=O)(=O)c1cc2cc(F)ccc2o1` [Example 43, (2S)-N-[(3-benzyloxyphenyl)methyl]-1-(5-fluorobenzofuran-2-yl)sulfonyl-pyrrolidine-2-carboxamide], 1.6 nM.
For the compound `O=C(NCc1cccc(OCc2ccc(C(F)(F)F)cc2)c1)[C@@H]1C=CCN1S(=O)(=O)c1cc2ccccc2o1` [Example 44, (2S)-1-(benzofuran-2-ylsulfonyl)-N-[[3-[[4-(trifluoromethyl)phenyl]methoxy]-phenyl]methyl]-2,5-dihydropyrrole-2-carboxamide], the IC50 was found to be 1.7 nM.
As for `O=C(NCc1cccc(OCc2ccc(C(F)(F)F)cc2)c1)[C@@H]1[C@@H](O)CCN1S(=O)(=O)c1cc2ccccc2o1` [Example 45, (2S,3S)-1-(benzofuran-2-ylsulfonyl)-3-hydroxy-N-[[3-[[4-(trifluoromethyl)phenyl]methoxy]-phenyl]methyl]pyrrolidine-2-carboxamide], the figure is 35 nM.
As for `O=C(NCc1cccc(OCc2ccc(C(F)(F)F)cc2)c1)[C@@H]1C[C@@H](O)CN1S(=O)(=O)c1cc2ccccc2o1` [Example 46, (2S,4R)-1-(benzofuran-2-ylsulfonyl)-4-hydroxy-N-[[3-[[4-(trifluoromethyl)phenyl]methoxy]-phenyl]methyl]pyrrolidine-2-carboxamide], the figure is 130 nM.
